Measurements taken from patent publication US12566184B2, “Cell-free biosensors to detect creatinine, creatine, and sarcosine” (Georgia Tech Research Corporation, priority 2021, dated 2026).

tested on: colored probe product; assay: enzymatic creatinine assay with limited chemical probe (Amplex Red): stabilization of probe signal by antioxidants; assay type: biochemical; conditions: antioxidants added at different concentrations; chemical probe at low concentration
From the text: The existing assay is a purely enzymatic approach that translates the concentration of creatinine into a colorimetric change of varying intensity. It contains two enzymes. The first enzyme, creatininase, catalyzes the conversion of creatinine to creatine. The second enzyme, creatinase, catalyzes creatine to sarcosine. This bioconversion aspect of the assay can be maintained in both of the embodiments. In the existing assay, the sarcosine is then oxidized by sarcosine oxidase, generating hydrogen peroxide in the process. The fluorogenic peroxidase substrate Amplex Red, hereafter referred to as the “probe”, interacts with the generated hydrogen peroxide in the presence of horseradish peroxidase to produce the red-fluorescent product resorufin (see Yamkamon et al. Simultaneous determination of sarcosine and its related metabolites by gas chromatography-tandem mass spectrometry for prostate cancer diagnosis, EXCLI Journal, 2018). Resorufin accumulation leads to a visible color change with a linear response over physiological serum creatinine concentrations. However, there is significant day-to-day variability of unknown origin that affects the amplitude of the output, thus requiring (per manufacturer's instructions) a calibration curve to be run with every sample or batch of samples and complicating field deployment.
In certain embodiments of the disclosed invention, the existing assay can be taken in its entirety and titrated down the amount of probe (fluorogenic peroxidase substrate, Amplex Red) so as to produce a sample-specific calibration curve. The probe concentration that corresponds with specific creatinine concentrations in calibration tests can be first identified using defined chemical mixtures and then implemented in a serum sample matrix to validate the sample-specific calibration curve. […] This method yields a set of reactions to which patient sample can be added, and regardless of the sample levels of creatinine, the calibration spots will all correspond to defined levels of creatinine. The reaction with excess probe can then be visually compared to the calibration spots to determine the creatinine level. In particular, a shift from colorless to red may be useful for a presence-absence or binary diagnostic test. For more accurate monitoring of intensity of color, a plate reader (e.g., spectrophotometer or fluorescence reader) can be used.
Furthermore, in order to reduce the patient-to-patient variability in readouts, also known as matrix effects, where the molecule being measured may appear to be at a different concentration only due to interferences from other constituents of the solution, the inventors identified that the appropriate reagent to limit was not the enzymes in the chemical assay, but rather the chemical probe. However, when the concentration of the chemical probe was reduced to a low level to enable the calibration approach, a side reaction happened where probe that has been transformed from colorless into colored form undergoes a second reaction that brings it back to a colorless form. This made the signal “decay” and thus would lead to an underreporting of the target molecule's concentration.

| Compound | effect on decay of probe signal (transformation of colored probe product into colorless side product) |
| --- | --- |
| O=C(O)CC(O)(CC(=O)O)C(=O)O [citric acid] | preventing the decay of probe signal |
| O=c1[nH]c(=O)c2[nH]c(=O)[nH]c2[nH]1 [uric acid] | preventing the decay of probe signal |
| O=C1O[C@H]([C@@H](O)CO)C(O)=C1O [Vitamin C] | preventing the decay of probe signal |
| Vitamin E | preventing the decay of probe signal |
| N[C@@H](CCC(=O)N[C@@H](CS)C(=O)NCC(=O)O)C(=O)O [L-glutathione (reduced)] | preventing the decay of probe signal |
| Cc1c(C)c2c(c(C)c1O)CCC(C)(C(=O)O)O2 (racemic) [(±)-6-Hydroxy-2,5,7,8-tetramethylchromane-2-carboxylic acid] | preventing the decay of probe signal |
